The source of these data is ChEMBL document CHEMBL1149499, “Synthesis and agonist activity of cyclic ADP-ribose analogues with substitution of the northern ribose by ether or alkane chains” (J Med Chem, 2006).

Active and inactive are the calls of the source. No cut-off for these calls is given here.

Common to all, as to format: functional, cell-based
Holding throughout (conditions): Homo sapiens

In experiment [1] the test system is Jurkat. The experiment is described as follows: Agonist activity against cADPR/RyR assessed as induction of calcium influx in intact jurkat T cells at 500 uM.
Experiment [2] concerns Jurkat. Briefly: Antagonist activity against cADPR/RyR assessed as inhibition of anti CD3-stimulated calcium influx in intact jurkat T cells at 500 uM.
The test system of experiment [3] is Jurkat. The experiment is described as follows: Induction of calcium flux in single jurkat T cell by confocal calcium imaging experiment at 500 uM. (Calcium flux is commonly read through the fluorescence of an indicator in the cells.)

For the compound `N=c1c2ncn3c2ncn1CCCCCOP(=O)(O)OP(=O)(O)OC[C@H]1O[C@@H]3[C@H](O)[C@@H]1O`, the outcome in the experiment on Jurkat [1] was Active. In addition, the outcome with Jurkat [2] was inactive.

Turning to `N=c1c2ncn3c2ncn1CCOCCOP(=O)(O)OP(=O)(O)OC[C@H]1O[C@@H]3[C@H](O)[C@@H]1O`, the result in the experiment on Jurkat [1] and with Jurkat [3] was Active. In the experiment with Jurkat [2], the outcome was inactive.

`N=c1c2ncn3c2ncn1CCCCOP(=O)(O)OP(=O)(O)OC[C@H]1O[C@@H]3[C@H](O)[C@@H]1O`: the outcome in the experiment on Jurkat [1] was Active. Further, the result in the experiment on Jurkat [2] was inactive.
